Where two headings read alike, the source gives them in different places.
Experiments:
[1] = Water uptake on exposure to air for 13 days
[2] = Water uptake / hygroscopicity on storage at 40° C. and 75% relative humidity

Q: For `COc1ccc(C(CN(C)C)C2(O)CCCCC2)cc1` (centres unmarked) [Example 4D, Less hydrated Venlafaxine Besylate], which “water present after exposure to air (Karl-Fischer)” value ([1]; exposed to air for 13 days at room temperature) is on record?
A: 1 molar equivalent of water

Q: For `COc1ccc(C(CN(C)C)C2(O)CCCCC2)cc1` (single isomer, unassigned; (+)) [Example 6, (+)-Isomer of Venlafaxine Besylate], which hygroscopicity [2] is on record?
A: less hygroscopic

Q: Which results are given for `COc1ccc(C(CN(C)C)C2(O)CCCCC2)cc1` (racemic) [Example 4A, Venlafaxine Besylate Anhydrate]?
A: water content after storage (K. Fischer) ([2]; 3 days at 40° C. and 75% relative humidity): 4%; hygroscopicity ([2]; listed as Anhydrous (+/−)-venlafaxine besylate): hygroscopic

Q: Which “water present after exposure to air (Karl-Fischer)” value ([1]; exposed to air for 13 days) does the source give for `COc1ccc(C(CN(C)C)C2(O)CCCCC2)cc1` (centres unmarked) [Example 4B, Amorphous Venlafaxine Besylate] here?
A: 1 equivalent of water

Q: Which hygroscopicity [2] does the source give for `COc1ccc(C(CN(C)C)C2(O)CCCCC2)cc1` (single isomer, unassigned; (-)) [Example 5, (−)-Isomer of Venlafaxine Besylate] here?
A: less hygroscopic

Q: For `COc1ccc(C(CN(C)C)C2(O)CCCCC2)cc1` (racemic) [venlafaxine besylate monohydrate], which “uptake of water after storage” value ([2]; 40° C., relative humidity 75%) is on record?
A: No uptake of water

Q: And the hygroscopicity ([2]; besylate monohydrate)?
A: substantially non-hygroscopic
